A short description of one data set: Rat pharmacokinetics. It is filed as in vivo, rats. To be noted: for AUC(0-t): AUC0-24 hr. Here is the method: Pharmacokinetic (PK) data was obtained in rats to assess the bioavailability of test compound. In particular, the following PK parameters were calculated: bioavailability as measured by area under the Concentration/Time curve (AUC), fraction of dose available (% F; further defined below), clearance (CL), volume of distribution (Vd), and half-life (t½). […] Three rats were used per dosing group. Blood was collected over a 24-hr period. The time points for blood collection after intravenous administration were: 0, 2.5, 5, 10, 15, 30, 45 min, 1, 2, 4, 8, 12, and 24 hrs; time points for blood collection after p.o. administrations were: 0, 5, 15, 30, 45 min, 1, 2, 3, 4, 8, 12, and 24 hrs. Plasma samples were analyzed for compound levels by LC-MS/MS at PPD. Raw data was analyzed by non-compartmental analysis in Win-nonLin to calculate VD, % F, CL, and t1/2.

Data set [1] in a line: Blood brain barrier penetration: plasma and brain levels after single oral dose. Type of data set: in vivo. To be noted: mice, single 30 mg/kg (free base equivalent) p.o. Here is the method:
For this purpose, 8-week old wild-type male mice (C57BL/6) were administered a single 30 mg/kg (free base equivalent) p.o. dose of reference or test compound by gavage (n=3 mice per time point). Dosing solutions were prepared in water. After dosing, mice were euthanized with CO2 at the following time points: 0-, 0.5-, 1-, and 4-hour post-dose. […] Similarly, brains were collected from each mouse. Plasma was derived by spinning whole blood at 2,700×g for 10 minutes at 4° C. followed by storage on dry ice. Whole brains were washed in cold PBS to remove contaminating blood, blotted dry, flash frozen on dry ice, and ultimately stored at −80° C. until analysis. To prepare brain samples for analysis, 50-100 mg of tissue was homogenized in […] of water/mg tissue. Samples were then clarified by centrifugation. Next, 25 μl of the brain homogenate supernatant or 25 μl of plasma were combined with 25 μl of acetonitrile:water (95/5). […] Samples were again clarified by centrifugation and 75 μl of the supernatant was combined with 75 μl of acetonitrile. Samples were then analyzed for compound levels by LC-MS/MS at PPD Inc. (3230 Deming Way, Middleton, Wis. 53562). In brief, a Thermo Betasil, Silica-100, 50×3 mm, 5μ column equilibrated with a mixture of mobile phase consisting of 5 mM ammonium formate and 0.05% formic acid in (A) 95:5 acetonitrile:water or (B) 70:20:10 methanol:water:acetonitrile was employed. Between 20 and 30 μl sample was injected for analysis. For calculating drug concentrations, raw data for plasma (ng/mL) and brain (ng/g) was converted to nM using the molecular weight of respective compounds and assuming 1 g of tissue is equivalent to 1 mL volume. Concentration as a function of time was plotted in GraphPad Prism version 4.02.

[2] abbreviates: male, Sprague-Dawley, plasma, iv, 3 mg/kg, IV 3 mg/kg free base.

Where a name gives a salt, the structure may show the parent alone. Read-outs that look alike come from different tables or passages of the source.

Turning to `CC(F)[C@H]1CNC[C@@H](O)[C@@H]1O` (single isomer, unassigned), in “Rat pharmacokinetics”, the dose proportionality entry is “dose proportionality”. Also, in “Rat pharmacokinetics”, the pharmacokinetic profile entry is “favorable pharmacokinetic profiles for drug development”. For the same compound, the volume of distribution entry in the data set “Rat pharmacokinetics” is “suggesting adequate penetration into peripheral tissues”. The distribution volume (Vd) in “Rat pharmacokinetics” (setting [2]) was found to be 9.77 ± 1.55 L/kg. The same compound showed a clearance in “Rat pharmacokinetics” (setting [2]) of 45.1 mL/min/kg. Moreover, the area under the curve AUC(0-t) in “Rat pharmacokinetics” (setting [2]) was 1420 ± 188 ng·h/mL; in “Rat pharmacokinetics” (male, Sprague-Dawley, plasma, po, 10 mg/kg, PO 10 mg/kg free base) it was 7100 ± 606 ng·h/mL; in “Rat pharmacokinetics” (male, Sprague-Dawley, plasma, po, 30 mg/kg, PO 30 mg/kg free base), 21700 ± 1710 ng·h/mL; in the data set “Rat pharmacokinetics” (male, Sprague-Dawley, plasma, po, 100 mg/kg, PO 100 mg/kg free base) it was 59500 ± 1000 ng·h/mL. Besides, the Cmax in the data set “Rat pharmacokinetics” (male, Sprague-Dawley, plasma, iv, 3 mg/kg, IV 3 mg/kg free base, read-out: Cmax) came to 2330 ± 373 ng/mL; in “Rat pharmacokinetics” (male, Sprague-Dawley, plasma, po, 30 mg/kg, PO 30 mg/kg free base, read-out: Cmax) it was 6920 ± 451 ng/mL; in the data set “Rat pharmacokinetics” (male, Sprague-Dawley, plasma, po, 100 mg/kg, PO 100 mg/kg free base, read-out: Cmax), 19400 ± 3030 ng/mL. Moreover, the half-life in “Rat pharmacokinetics” (male, Sprague-Dawley, plasma, iv, 3 mg/kg, IV 3 mg/kg free base, read-out: t1/2 (converted)) is 2.6 ± 0.64 h; in the data set “Rat pharmacokinetics” (male, Sprague-Dawley, plasma, po, 10 mg/kg, PO 10 mg/kg free base, read-out: t1/2 (converted)), 2.8 ± 0.5 h; in “Rat pharmacokinetics” (male, Sprague-Dawley, plasma, po, 30 mg/kg, PO 30 mg/kg free base, read-out: t1/2 (converted)), 2.7 ± 0.12 h; in “Rat pharmacokinetics” (male, Sprague-Dawley, plasma, po, 100 mg/kg, PO 100 mg/kg free base, read-out: t1/2 (converted)), 2.5 ± 0.19 h; in the data set “Rat pharmacokinetics” (male, Sprague-Dawley, plasma, read-out: half-life), 1 to 4 h. In addition, in the data set “Rat pharmacokinetics” (male, Sprague-Dawley, plasma, po, approximately), the bioavailability fell in the range of 50 to 100%. Further, the “blood brain barrier crossing compared to IFG-tartrate” value in data set [1] is given as “crossed the blood brain barrier more readily as compared to IFG-tartrate”. Moreover, in data set [1], the “levels detected in brain compared to IFG-tartrate” value is listed as “higher levels”.

For `CC[C@@H](F)[C@H]1CNC[C@@H](O)[C@@H]1O.Cl` [(3R,4R,5S)-5-((R)-1-fluoropropyl)-piperidine-3,4-diol hydrochloride], in data set [1], the “blood brain barrier crossing compared to IFG-tartrate” value is “crossed the blood brain barrier more readily as compared to IFG-tartrate” and the “levels detected in brain compared to IFG-tartrate” value was “higher levels”.

Regarding `O[C@@H]1[C@@H](Cc2ccccc2)CNC[C@H]1O` [(3R,4R,5S)-5-benzyl-piperidine-3,4-diol], in “Rat pharmacokinetics”, the dose proportionality entry is recorded as “dose proportionality”, the pharmacokinetic profile result is “favorable pharmacokinetic profiles for drug development” and the volume of distribution entry is given as “suggesting adequate penetration into peripheral tissues”. Further, in data set [1], the “blood brain barrier crossing compared to IFG-tartrate” value is on record as “crossed the blood brain barrier more readily as compared to IFG-tartrate” and the “levels detected in brain compared to IFG-tartrate” value was “higher levels”.

Consider `O[C@H]1[C@H](O)CNC[C@@H]1C(F)F` [Compound 6, (3R,4R,5S)-5-(Difluoromethyl)piperdine 3,4-diol Hydrochloride], for which, in “Rat pharmacokinetics”, the dose proportionality result was “dose proportionality”, the pharmacokinetic profile entry is given as “favorable pharmacokinetic profiles for drug development” and the volume of distribution entry is “suggesting adequate penetration into peripheral tissues”. Also, in the data set “Rat pharmacokinetics” (IV 3 mg/kg free base), the “CL” value is 25.92 mL/min/kg, the “Cmax” value was 2323 ng/mL and the “VD” value amounted to 2.612 L/kg. Moreover, in the data set “Rat pharmacokinetics” (PO 10 mg/kg free base), the “% F” value is on record as 106%, the maximum concentration (Cmax) stood at 3363 ng/mL and the “t1/2” value was 2.58 h. In “Rat pharmacokinetics” (PO 30 mg/kg free base), the “% F” value worked out at 101%, the “Cmax” value amounted to 10037 ng/mL and the “t1/2” value came out at 2.75 h. Moreover, in “Rat pharmacokinetics” (PO 100 mg/kg free base), the “% F” value came out at 121%, the “Cmax” value stood at 33200 ng/mL and the “t1/2” value was found to be 2.41 h. In addition, in data set [1], the “blood brain barrier crossing compared to IFG-tartrate” value is “crossed the blood brain barrier more readily as compared to IFG-tartrate” and the “levels detected in brain compared to IFG-tartrate” value is on record as “higher levels”.

These data come from patent publication US10035766B2, “Compositions for preventing and/or treating lysosomal storage disorders” (Amicus Therapeutics, Inc., priority 2009, dated 2018).
